The source of these data is ChEMBL document CHEMBL3734654, “Mutational mapping of the transmembrane binding site of the G-protein coupled receptor TGR5 and binding mode prediction of TGR5 agonists” (Eur J Med Chem, 2015).

This experiment has as its system T1, G-protein coupled bile acid receptor 1 (Homo sapiens), Q8TDU6 [E169A].
T1 sequence (whole entry): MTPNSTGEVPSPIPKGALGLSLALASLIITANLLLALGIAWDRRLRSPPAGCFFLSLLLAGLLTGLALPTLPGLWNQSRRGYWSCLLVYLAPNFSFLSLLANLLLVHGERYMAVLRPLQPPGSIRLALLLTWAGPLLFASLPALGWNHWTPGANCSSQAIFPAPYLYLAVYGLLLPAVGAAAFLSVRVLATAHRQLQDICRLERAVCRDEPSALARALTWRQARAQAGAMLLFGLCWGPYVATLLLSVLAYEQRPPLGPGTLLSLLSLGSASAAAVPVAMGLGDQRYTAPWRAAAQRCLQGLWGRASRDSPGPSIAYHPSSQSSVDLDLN
As to the kind of experiment: Agonist activity at human TGR5 E169A mutant expressed in HEK293 cells assessed as rise in intracellular cAMP level at 10 uM incubated for 16 hrs by luciferase reporter assay relative to wild type. It is filed as functional, cell-based.

Molecules are shown by their SMILES. Calls of active or inactive are those of the source. The rule behind the calls is not given here.

For the compound `C=C[C@@]1(C)CC(=O)[C@]2(O)[C@@]3(C)[C@@H](O)CCC(C)(C)[C@@H]3[C@H](O)[C@H](OC(C)=O)[C@@]2(C)O1`, the outcome was Active.
